“And” between values parts separate entries of the source, which are not always exact repeats. Equal values may be shown once. “Also recorded” adds a separate entry of the source. Square brackets hold non-standard residues; d marks the D form. Peptide text beside a SMILES is read from it.
What was measured:
[1] = system: patients with MCI or mild dementia due to AD; test: Vital signs, physical examination, ECG and EEG; assay type: in vivo, human; details: 300 mg q.d. oral 28 d
Description: (§2) For safety assessment during baseline, at Day 14, 28, and 56, laboratory parameters and vital signs were measured, a physical exam was performed, and ECGs were recorded per protocol. A safety MRI was performed at screening, a second one within 3 days after day 28 and a third one at Day 56. During baseline and at day 28, EEG measurements were performed. In addition, nature, frequency, severity, and timing of AEs and SAEs were recorded at day 14, 28, and 56. Standardized AE reports were provided and analysed by the Data Safety and Monitoring Board (DSMB).

[2] = system: patients with MCI or mild dementia due to AD; test: Safety MRI (ARIA); assay type: in vivo, human; details: MRI at screening, after Day 28 and Day 56, 300 mg q.d. oral 28 d, n=9
Description: as §2

[3] = system: patients with MCI or mild dementia due to AD; test: Clinical Dementia Rating Sum of Boxes (CDR-SB); assay type: in vivo, human; details: 300 mg q.d. oral 28 d
Description: The effect of PRI-002 on cognition and function was tested by the CERAD+ battery and CDR-SB at baseline, Day 28, and Day 56, exploratory endpoints included the change of biomarkers (p-tau, t-tau, Aβ 1-40, Aβ 1-42 and Aβ oligomers) in CSF, blood plasma; change in CERAD+ test battery and CDR-SB scores.

[4] = Pharmacokinetics of PRI-002 in plasma; details: 300 mg q.d. oral; for AUC(0-t): AUC 0-4 hours
Description: The effect on biomarker was assessed during baseline and after 28 days of medication. CSF collection and blood sampling were performed to determine PRI-002 concentration, which was conducted by Nuvisan (Neu-Ulm, Germany) and to exploratively estimate the effect of PRI-002 on the modulation of Aβ 1-40, Aβ 1-42, Aβ oligomers, total tau (t-tau), and phospho tau (p-tau). Aβ 1-40, Aβ 1-42, t-tau and p-tau181 were measured by immunoassay, using the Lumipulse platform (Fujirebio, Tokyo, Japan) and Aβ oligomers concentrations were determined using sFIDA technology[31]–[33] by attyloid GmbH (Düsseldorf, Germany). The effect of PRI-002 on cognitive and functional performance was measured by repetitively applying the CERAD+ battery and the Clinical Dementia Rating (CDR) at baseline, at Day 28 and additionally at the last visit (Day 56).
Secondary endpoints included the evaluation of pharmacokinetic characteristics of PRI-002 by determination of maximum plasma concentration (Cmax), time to reach maximum plasma concentration (Tmax), half-life (t1/2) calculated from PRI-002 plasma concentrations; and the determination of CSF concentrations of PRI-002.
4 Pharmacokinetic sampling X X
1 Heart rate and blood pressure: Day 1: at pre-dose and 2 hours±15 minutes; Day 14 and 28: at pre-
dose; 2 ECG Day 1: at pre-dose and 2 hours ± 15 minutes; Day 14 and 28: at pre-dose; 3 Safety
MRI was scheduled at screening and within three days after Day 28 and Day 56;4 Pharmacokinetic
sampling Day 1 and Day 28: at pre-dose, 30 minutes ± 15 minutes, 1 hour ± 15 minutes, 2
hours ± 15 minutes, and 4 hours ± 15 minutes.

[5] = PRI-002 concentration in CSF; assay type: in vivo, human
Description: (§1) In addition, also CSF levels of PRI-002 were determined. Due to non-specific binding of PRI-002 to vials used for sampling and storage the measured values, which are depicted in the Supplementary Table 7 are minimal values and the actual values will most probably be higher than reported here.
(11) Why were there no PK (drug concentration) assessments in CSF? Because BBB penetration in mice vs humans can diverge, matching CSF drug concentrations in human to those achieved in the animal pharmacology studies would be more compelling than matching […] drug concentrations. If there is a fundamental technical problem, it should be mentioned in the manuscript. […]
were unable to determine exact values. Due to non-specific binding of PRI-002 to vials used for sampling and storage of CSF, the measured values, which are depicted in the Table below are minimal values and will probably be higher than reported here.
Considering the three CSF samples in which the PRI-002 levels were above the LLOQ, approximately 15% of the mean predose plasma level of all patients at Day 28 (1.97±2.4 ng/ml) reached the CSF and […]
as §1, with “We will include the Table S5 in the supplement and the following sentence in the results part page 11, line 327-331: ”In” for “In”, “non -specific” for “non-specific”, “the” for “the Supplementary”, “S7” for “7”
Considering the three CSF samples in which the PRI -002 levels were above the LLOQ, approximately […]
Table S7 PRI-002 Level in CSF of […]

[6] = system: patients with MCI or mild dementia due to AD; test: Adverse events assessment (AE/SAE, MedDRA 23.0), phase 1b trial; details: 300 mg q.d. oral 28 d, n=9
Description: During treatment, the frequency of study visits at the trial site was 14 days (Day 1, day 14, Day 28). A last assessment took place at Day 56. At Day 7 and Day 21 additional phone contacts for safety assessments were performed.
For safety assessment during baseline, at Day 14, 28, and 56, laboratory parameters and vital signs were measured, a physical exam was performed, and ECGs were recorded per protocol. […] In addition, nature, frequency, severity, and timing of AEs and SAEs were recorded at day 14, 28, and 56. Standardized AE reports were provided and analysed by the Data Safety and Monitoring Board (DSMB).
Primary endpoints included nature, frequency, severity, and timing of AEs and SAEs; changes in routine laboratory values, ECG, MRI, EEG, and vital signs.

[7] = plasma, Day 1 (n=9), Max, MCI/mild AD patients
[8] = plasma, Day 1 (n=9), Mean ± SD, MCI/mild AD patients
[9] = plasma, Day 1 (n=9), Min, MCI/mild AD patients
[10] = plasma, Day 28 (n=8), Max, MCI/mild AD patients

## CC(C)C[C@@H](NC(=O)[C@H](NC(=O)[C@H]1CCCN1)[C@H](C)O)C(=O)N[C@H](Cc1c[nH]cn1)C(=O)N[C@@H](C(=O)N[C@H](Cc1c[nH]cn1)C(=O)N[C@H](CC(N)=O)C(=O)N[C@H](CCCNC(=N)N)C(=O)N[C@H](CCCNC(=N)N)C(=O)N[C@H](CCCNC(=N)N)C(=O)N[C@H](CCCNC(=N)N)C(=O)N[C@H](CCCNC(=N)N)C(N)=O)[C@H](C)O [PRI-002] (H-[dP][dT][dL][dH][dT][dH][dN][dR][dR][dR][dR][dR]-NH2; N-terminus and C-terminus assumed)
[1]
  changes on vital signs, general physical examination, ECG and EEG: no significant changes
[2]
  MRI: ARIA, edematous changes: no edematous changes; also recorded: no ARIA
[3]; Day 28, n=8
  CDR-SB, Mean: 1.75
[3]; Day 56, n=9
  CDR-SB, Mean: 2.39
[4]; Day 1, 0 h, n=9, MCI/mild AD patients
  PRI-002 plasma level, Mean: 0 ng/mL
[4]; Day 1, one line per patient
  AUC 0-4 hours, individual patients: 8.54 ng·h/mL
  C max (PRI-002 plasma level Day 1), individual patients: 3.43 ng/mL and 1 ng/mL and 2.02 ng/mL and 3.03 ng/mL and 2.84 ng/mL and 10.2 ng/mL and 6.52 ng/mL and 10.4 ng/mL and 0.66 ng/mL and 0.70 ng/mL and 1.00 ng/mL
  T max, individual patients: 0.50 h (3×) and 2.00 h and 4.00 h (3×) and 1.00 h (2×)
[4]; Day 28 (n=8), Max, MCI/mild AD patients
  Css trough: 7.45
[4]; Day 28, one line per patient
  C max, individual patients: 1.76 ng/mL and 18.10 ng/mL and 9.37 ng/mL and 31.40 ng/mL and 2.42 ng/mL and 32.90 ng/mL and 2.24 ng/mL and 2.98 ng/mL
  T max, individual patients: 0.50 h (6×) and 4.00 h and 2.00 h
[4]; day 1, 2 h, one line per patient
  PRI-002 plasma level, individual patients: 0.878
[4]; day 1, Pre-dose, one line per patient
  PRI-002 plasma level, individual patients: 0 ng/mL
[4]; human, plasma, po, 300 mg, plasma, Day 1 (n=9), Mean ± SD, MCI/mild AD patients
  AUC(0-t): 9.98 ± 7.46 ng·h/mL
[4]; human, plasma, po, 300 mg, plasma, Day 28 (n=8), Mean ± SD, MCI/mild AD patients
  AUC(0-t): 26.8 ± 23.8 ng·h/mL
[4]; human, plasma, po, 300 mg, plasma, Day 28 (n=8), Median, MCI/mild AD patients
  AUC(0-t): 20.4 ng·h/mL
[4]; human, plasma, po, 300 mg, Cmax, plasma, Day 1 (n=9), Mean ± SD, MCI/mild AD patients
  Cmax: 4.46 ± 3.71 ng/mL
[4]; human, plasma, po, 300 mg, Cmax, plasma, Day 1 (n=9), Median, MCI/mild AD patients
  Cmax: 3.03 ng/mL
[4]; human, plasma, po, 300 mg, Cmax, plasma, Day 28 (n=8), Mean ± SD, MCI/mild AD patients
  Cmax: 12.6 ± 13.2 ng/mL
[4]; human, plasma, po, 300 mg, Cmax, plasma, Day 28 (n=8), Median, MCI/mild AD patients
  Cmax: 6.2 ng/mL
[4]; human, plasma, po, 300 mg, PRI-002 plasma level, Mean, Day 1, 0.5 h, n=9, MCI/mild AD patients
  level at 0.5 h: 3.1 ng/mL
[4]; human, plasma, po, 300 mg, PRI-002 plasma level, Mean, Day 1, 1 h, n=9, MCI/mild AD patients
  level at 1 h: 3.5 ng/mL
[4]; human, plasma, po, 300 mg, PRI-002 plasma level, Mean, Day 1, 2 h, n=9, MCI/mild AD patients
  level at 2 h: 2.6 ng/mL
[4]; human, plasma, po, 300 mg, PRI-002 plasma level, Mean, Day 1, 4 h, n=9, MCI/mild AD patients
  level at 4 h: 1.9 ng/mL
[4]; human, plasma, po, 300 mg, PRI-002 plasma level, Mean, Day 28, 0 h, n=8, MCI/mild AD patients
  level at 0 h: 2 ng/mL
[4]; human, plasma, po, 300 mg, PRI-002 plasma level, Mean, Day 28, 0.5 h, n=8, MCI/mild AD patients
  level at 0.5 h: 12.5 ng/mL
[4]; human, plasma, po, 300 mg, PRI-002 plasma level, Mean, Day 28, 1 h, n=8, MCI/mild AD patients
  level at 1 h: 8.4 ng/mL
[4]; human, plasma, po, 300 mg, PRI-002 plasma level, Mean, Day 28, 2 h, n=8, MCI/mild AD patients
  level at 2 h: 6.1 ng/mL
[4]; human, plasma, po, 300 mg, PRI-002 plasma level, Mean, Day 28, 4 h, n=8, MCI/mild AD patients
  level at 4 h: 4.6 ng/mL
[4]; human, plasma, po, 300 mg, Tmax, plasma, Day 1 (n=9), Mean ± SD, MCI/mild AD patients
  Tmax: 1.94 ± 1.61 h
[4]; human, plasma, po, 300 mg, Tmax, plasma, Day 1 (n=9), Median, MCI/mild AD patients
  Tmax: 1 h
[4]; human, plasma, po, 300 mg, Tmax, plasma, Day 28 (n=8), Mean ± SD, MCI/mild AD patients
  Tmax: 1.1 ± 1.3 h
[4]; n=8, Mean ± SD, MCI/mild AD patients
  AUC 0-4 (Day28/Day1), mean systemic drug increase: 2.5 ± 1.3 fold
[4]; [7]
  AUC 0-4 hours: 22.0 ng·h/mL
  Cmax: 10.4 ng/mL
  Tmax: 4.0 h
[4]; [8]
  AUC 0-4 hours: 10 ± 7.5 ng·h/mL
  Tmax: about 2 h
[4]; [9]
  AUC 0-4 hours: 2.0 ng·h/mL
  Cmax: 0.7 ng/mL
[4]; [10]
  AUC 0-4 hours: 70.9 ng·h/mL
  Tmax: 4.0 h
[4]; plasma, Day 28 (n=8), Mean ± SD, MCI/mild AD patients
  Tmax: ~1 h
[4]; plasma, Day 28 (n=8), Min, MCI/mild AD patients
  AUC 0-4 hours: 5.9 ng·h/mL
[5]; Day 28, LLOQ 0.200, minimal values due to non-specific binding to vials, one line per patient, 300 mg q.d. oral
  PRI-002 Level in CSF of individual patients: < 0.200 ng PRI-002/ml (6×) and 0.203 ng PRI-002/ml and 0.377 ng PRI-002/ml and 0.304 ng PRI-002/ml
[5]; three CSF samples above LLOQ versus predose plasma of all patients at Day 28
  share of the mean predose plasma level that reached the CSF: approximately 15%
[5]; three CSF samples above LLOQ versus predose plasma of patients 2, 3 and 4 at Day 28
  share of the mean predose plasma level that reached the CSF: approximately 8%
[6]
  tolerability: well tolerated
